The text below walks through data of PMC12175533, “A cell-cell communication signal from Enterobacter cloacae interfering with the signaling systems and virulence in Shigella sonnei” (Applied and Environmental Microbiology, 2025).

Molecules are shown by their SMILES.

For the test, the target named is T1, YjgB (ECL_RS22935), alcohol dehydrogenase (Enterobacter cloacae, UniProt A0A0H3CR94).
T1 construct: gene ECL_04598; full-length ORF in pET-28a(+), His-tag fusion, E. coli BL21(DE3) with ZnCl2, HisTrap
T1 sequence (A0A0H3CR94 entry or part of it): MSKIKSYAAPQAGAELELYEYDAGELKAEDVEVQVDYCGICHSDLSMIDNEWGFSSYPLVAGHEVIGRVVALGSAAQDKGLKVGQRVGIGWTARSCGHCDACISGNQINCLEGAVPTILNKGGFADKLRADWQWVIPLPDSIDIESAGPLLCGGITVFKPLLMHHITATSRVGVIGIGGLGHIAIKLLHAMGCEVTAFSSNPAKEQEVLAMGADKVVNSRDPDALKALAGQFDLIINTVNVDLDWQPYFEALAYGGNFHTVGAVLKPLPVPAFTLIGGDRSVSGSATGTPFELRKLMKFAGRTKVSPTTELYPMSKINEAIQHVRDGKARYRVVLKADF
Nature of the test: HPLC product formation assay. The test is classed as biochemical. The conditions noted are these: 200 uM substrate, 0.2 mM NADPH, 50 mM Tris-HCl, pH 8.0, 37 °C, 10 uM enzyme.

Consider `O=CCc1c[nH]c2ccccc12` [indole-3-acetaldehyde], for which the “HPLC product formation assay” value is recorded as “In vitro enzymatic assays demonstrated that YjgB directly catalyzed the conversion of indole-3-acetaldehyde to indole-3-ethanol”. With `OCCc1c[nH]c2ccccc12` [indole-3-ethanol] the entry was “YjgB directly catalyzed the conversion of indole-3-acetaldehyde to indole-3-ethanol”.
